Experimental data taken from patent US6921775B2, “Methods for modulating brain damage” (Children's Medical Center Corporation, priority 2001, dated 2005).

Test system: AMPA receptors in cerebral white matter
Experiment: Intracerebral AMPA injection white matter injury
Type: in vivo
Protocol: The methods used in this example are described in Follett et al. (2000) J. Neurosci. 20:9235-9241, incorporated by reference herein.
NBQX attenuation of the selective white matter injury after hypoxia/ischemia implicated GluR-mediated toxicity as an important mechanism of injury in immature OLs. To confirm a relationship between the activation of AMPA receptors in cerebral white matter and the vulnerability to injury, AMPA was injected directly into immature white matter. […] Minimal to no injury was present in vehicle-injected controls (M K801 alone; n=7) at the same age (t test, p<0.001).
To determine whether AMPA toxicity was age dependent, lesion size after intracerebral AMPA injections at P4, P7, and P11 was compared.

Structure (SMILES): Cc1o[nH]c(=O)c1CC(N)C(=O)O (centres unmarked) [AMPA]
- white matter injury after intracerebral injection (P7 rat pups, 5 nmol of AMPA plus 5 nmol of MK-801, vs MK-801 alone p<0.001): produced white matter injury
- white matter injury (pericallosal lesion size) after injection at P4 and P11 compared with P7 (intracerebral AMPA, one-way ANOVA p<0.001): significantly less white matter injury
